Data: patent US9233957B2, “5-carbamoyl-adamantan-2-yl amide derivatives, pharmaceutically acceptable salts thereof and preparation process thereof” (SK BIOPHARMACEUTICALS CO., LTD., priority 2011, dated 2016)
Like-named read-outs stand apart in the source and are kept apart here.

How the values were obtained:
Human 11b-HSD1 = target: T1, Human 11b-HSD1 (Homo sapiens, UniProt P28845); test: Inhibition of cortisone-to-cortisol conversion in CHO-K1 cells over-expressing human 11b-HSD1 (HTRF cortisol assay); format: cell-based; conditions: CHO-K1 cells over-expressing human 11b-HSD1, 160 nM cortisone, 3 hours, 37° C.
T1 construct: expressed in transfected cells
Source text: (§1) cDNA (human: Accession No. U12978.2; mouse: Accession No. NM_008288.2) coding the full-length amino acid sequence of 11β-HSD1 in a human and a mouse was incorporated into pMSCVpuro (from Clontech. Co. Ltd.), a vector of expressing a mammalian cell for the production of a retrovirus, and the resulting product was introduced into a GP2-293 cell (from Clontech Co. Ltd.), a retrovirus packing cell line together with pVSV-G vector (from Clontech Co. Ltd.) by using a Lipotamine plus reagent (from Invitrogen Co. Ltd.) in accordance with the method set forth in the appendix (by using HTRF cortisol assay kit from Cisbio assays Co., Ltd., catalog No. 62CO2PEB) and stabilized for 48 hours. Thereafter, viruses being obtained from those cells were used to infect CHO-K1 cell (from Korean Cell Line Bank, KCLB No. 10061) and in 24 hours, the cells were treated with 10 μg/ml pumycin (from Sigma Co. Ltd.) for two weeks to produce a stabilized cell system wherein each 11β-HSD1 in humans or in mice was over-expressed. When the cells being maintained, 5 μg/ml of puromycin was put into the medium and used (RPMI (Gibco), 37° C.). • Reference material: The EMBO Journal (2008) 27, 642-653
(§2) The obtained cells with 11b-HSD1 in a human and a mouse being over-expressed were sub-cultured in a 96-well plate with a cell number being 3×10^4 cells per well and stabilized for 24 hours [RPMI (Gibco), at 37° C., as being used in 5 days after thawing]. After a medium as diluted with DMSO including 160 nM of cortisone (from Sigma Co. Ltd.) and a test compound at a different concentration was put into each well in an amount of 200 ul, the well was cultured in a cell cultivator at 37° C. for 3 hours. 10 ul of the cultured solution was put into a 384 well plate and the amount of cortisol as generated was measured using a cortisol kit (from Cisbio international Co. Ltd, HTRF assay) in accordance with the method set forth in the appended manual.
(§3) As a control group, 160 nM of cortisone and 1% of DMSO were put into a corresponding well. The ground value was obtained from a well including only 160 nM of cortisone and 1% of DMSO without cells just like the control group. The calculation for a % inhibition level was made following the manual as appended. • Reference material: The Journal of Steroid Biochemistry and Molecular Biology, Volume 104, Issues 3-5, May 2007, Pages 123-129 • Bioorganic & Medicinal Chemistry Letters Volume 19, Issue 10, 15 May 2009, Pages 2674-2678
(§4) Like the analyzing method as stated above, the efficacy of inhibiting 11b-HSD1 was calculated as IC50 and the results are shown in Table 1: […]

Mouse 11b-HSD1 = target: T2, Mouse 11b-HSD1 (Mus musculus, UniProt P50172); test: Inhibition of cortisone-to-cortisol conversion in CHO-K1 cells over-expressing mouse 11b-HSD1 (HTRF cortisol assay); format: cell-based; conditions: CHO-K1 cells over-expressing mouse 11b-HSD1, 160 nM cortisone, 3 hours, 37° C.
T2 construct: expressed in transfected cells
Source text: as §1, §2, §3, §4

11b-HSD1 = target: T3, 11b-HSD1 (Mus musculus, UniProt P50172); test: Ex vivo PD assay: 11b-HSD1 inhibition in abdominal fat and liver tissue after oral administration to mice; conditions: mouse C57B1/6, oral, vs vehicle group; for inhibition at 20 mg/kg: 6 hr; for inhibition at 10 mg/kg: 2 hr
T3 construct: the tissues in abdominal fat and the liver were obtained; from tissue; host or cells: abdominal fat and liver of C57Bl/6 mice
Procedure: The prepared compound was orally administered to a mouse (C57B1/6, orient 8 week old, about 25 g, male) and in a proper amount of time (2 hours, 6 hours, 12 hours, 16 hours, and 24 hours), the mouse was sacrificed and around 30 to 40 mg of the tissues in abdominal fat and the liver were obtained. To 500 ul of a medium (RPMI, gibco) including 1 μM of cortisone (from Sigma Co. Ltd.) and 400 μM of NADPH (from Sigma Co. Ltd) was added the tissue as obtained (30-40 mg), which then reacted in a cell cultivator at 37° C. for 3 hours. After 50 ul of the reacted solution was taken and diluted with DMEM medium at a volume ratio of 1/10, the amount of cortisol being generated was measured by using a cortisol kit (assay designs Co. Ltd., ELISA kit) in accordance with the method set forth in the appended manual. From the results being measured, the degree of the inhibition was obtained by the conversion in comparison with the vehicle group (vehicle: 5% DMSO+5% cremophor in dw, the amount being proportionate to the body weight, i.e., the administration was made at the same volume as the drug being introduced). • Reference material: Published Aug. 15, 2005//JEM vol. 202 no. 4 517-527 The Rockefeller University Press % inhibition={(the amount of cortisol of the vehicle group−the amount of the cortisol of the group with the compound being administered)/(the amount of cortisol of the vehicle group)}×100
According to the above analyzing method, the efficacy of inhibiting 11b-HSD1 of the test compound in the target organ was calculated as % inhibition values, which are shown in Table 2 and Table 3.

[1] = abdominal fat, read-out: 11b-HSD1 % inhibition in the fat
[2] = liver, read-out: 11b-HSD1 % inhibition in the liver

T1 sequence (P28845 whole entry): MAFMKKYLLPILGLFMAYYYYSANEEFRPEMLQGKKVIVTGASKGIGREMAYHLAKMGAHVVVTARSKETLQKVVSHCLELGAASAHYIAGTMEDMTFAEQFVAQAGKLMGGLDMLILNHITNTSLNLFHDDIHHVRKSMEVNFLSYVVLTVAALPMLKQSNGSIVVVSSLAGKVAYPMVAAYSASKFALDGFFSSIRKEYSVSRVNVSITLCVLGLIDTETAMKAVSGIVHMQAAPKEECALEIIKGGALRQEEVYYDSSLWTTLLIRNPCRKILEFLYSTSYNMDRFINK
T2 sequence (P50172 whole entry): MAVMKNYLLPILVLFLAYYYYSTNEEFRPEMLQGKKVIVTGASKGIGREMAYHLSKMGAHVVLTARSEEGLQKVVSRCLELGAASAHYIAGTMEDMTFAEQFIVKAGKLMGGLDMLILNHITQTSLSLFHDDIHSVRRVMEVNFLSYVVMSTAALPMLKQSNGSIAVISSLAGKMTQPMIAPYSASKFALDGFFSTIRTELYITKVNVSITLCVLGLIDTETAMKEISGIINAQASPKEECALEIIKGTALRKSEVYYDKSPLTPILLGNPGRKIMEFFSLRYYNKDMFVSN
T3 sequence (P50172 whole entry): as above

Row | SMILES | IC50 (Human 11b-HSD1) [nM] | IC50 (Mouse 11b-HSD1) [nM] | inhibition at 20 mg/kg (11b-HSD1; [1]) [%] | inhibition at 20 mg/kg (11b-HSD1; [2]) [%] | inhibition at 10 mg/kg (11b-HSD1; [1]) [%] | inhibition at 10 mg/kg (11b-HSD1; [2]) [%]
1 | Cn1c(C(=O)N[C@H]2C3CC4CC2C[C@](C(N)=O)(C4)C3)ccc1-c1ccccc1 [Example 34, N-(5-carbamoyl-2-adamantyl)-1-methyl-5-phenylpyrrole-2-carboxamide] | < 100 | < 100 | 96 | 92 |  | 
2 | Cn1c(C(=O)N[C@H]2C3CC4CC2C[C@](C(N)=O)(C4)C3)ccc1-c1ccccc1F [Example 39, N-(5-carbamoyl-2-adamantyl)-5-(2-fluorophenyl)-1-methylpyrrole-2-carboxamide] | < 100 | < 100 | 98 | 96 |  | 
3 | NC(=O)[C@]12CC3CC(C1)[C@@H](NC(=O)c1ccc(-c4ccccc4)s1)C(C3)C2 [Example 40, N-(5-carbamoyl-2-adamantyl)-5-phenylthiophene-2-carboxamide] | < 100 | < 100 | 63 | 38 |  | 
4 | NC(=O)[C@]12CC3CC(C1)[C@@H](NC(=O)c1ccc4ccccc4[n+]1[O-])C(C3)C2 [Example 64, N-(5-carbamoyl-2-adamantyl)-1-oxidoquinolin-1-ium-2-carboxamide] | > 500 | 100 to 500 | 57 | 48 | 51 | 61

Other lines, results leading:

Row | IC50 (Human 11b-HSD1) [nM] | IC50 (Mouse 11b-HSD1) [nM] | inhibition at 20 mg/kg (11b-HSD1; [1]) [%] | inhibition at 20 mg/kg (11b-HSD1; [2]) [%] | inhibition at 10 mg/kg (11b-HSD1; [1]) [%] | inhibition at 10 mg/kg (11b-HSD1; [2]) [%] | SMILES
5 | < 100 | < 100 | 72 | 69 |  |  | NC(=O)[C@]12CC3CC(C1)[C@@H](NC(=O)c1ccc(-c4ccccc4F)o1)C(C3)C2 [Example 30, N-(5-carbamoyl-2-adamantyl)-5-(2-fluorophenyl)furan-2-carboxamide]
6 | < 100 | < 100 | 98 | 98 |  |  | Cn1c(C(=O)N[C@H]2C3CC4CC2C[C@](C(N)=O)(C4)C3)ccc1-c1ccccc1Cl [Example 38, N-(5-carbamoyl-2-adamantyl)-5-(2-chlorophenyl)-1-methylpyrrole-2-carboxamide]
7 | < 100 | < 100 | 70 | 59 |  |  | NC(=O)[C@]12CC3CC(C1)[C@@H](NC(=O)c1ccc(-c4ccccc4Cl)s1)C(C3)C2 [Example 43, N-(5-carbamoyl-2-adamantyl)-5-(2-chlorophenyl)thiophene-2-carboxamide]
